Results published in paper PMC9671962 (Communications Biology, 2022).
Where “and” joins values, the source holds several entries; their conditions need not be identical. Equal entries are not always repeated.

Key:
[1] = Biodistribution in healthy CB57/BL6 mice with estimated human dosimetry (OLINDA/EXM); format: in vivo
Method: Using female mice was justified due to the lack of sex-related differences observed from initial dose-finding studies. […] At various time points mice were euthanized and tissues were harvested, weighed, and assayed for radioactivity by gamma counter. Decay corrected data is presented as percent injected dose per gram of tissue (%ID/g). […]
Animal studies were performed in female mice due to the lack of sex-related differences for [^211At]PTT tolerability from initial dose response studies performed in female and male mice. Female mice were chosen due to their underlying behavior towards other study subjects that reduced nonstudy-related causes for decreased wellness. Pre-clinical efficacy studies were performed through “single mouse testing” to more closely recapitulate a clinical trial. […] Number size for treatment groups was determined by model tumor growth reproducibility, which was previously shown to have less than 5% normal variation with at least two animals. Statistical tests for tumor response and event-free survival (EFS) were performed as a grouped analysis that included all tumor models treated at each respective dose level (n = 2 per model per dose level). Statistical differences between treatment groups for tumor response was performed by paired-model T-test that compared reduction in tumor volume for the 36 MBq/kg dose level vs. 24 MBq/kg or 12 MBq/kg. Event free survival was measured by area over the curve method to quantify time to event, which was set as tumor growth exceeding 2 cm[3],[19]. Differences in EFS were tested across all treated models for each respective dose level, and against untreated controls, by paired-model ANOVA analysis. Associations of drug target expression and response were performed by linear regression analysis of EFS and PARP1 mRNA expression. Genetic signatures were visually presented as a function of EFS and no statistical tests were applied. Blood and marrow toxicity studies were performed with n = 5 sample sizes and powered to detect >20% differences between untreated controls and treated animals. Results were tested for significance by one-way ANOVA comparison from untreated controls. Marrow colony formation assays were performed in replicates of 2 for each mouse subject, dependent on marrow isolation, and all replicates are included in final analyses. Statistical analysis was performed by ordinary one-way ANOVA comparison between the mean of control and test groups. Biodistribution studies were performed with n = 3 mice per time-point. Human dosimetry was calculated using OLINDA/EXM v1.1 software by fitting time activity curves for biodistribution data in a healthy mouse model. Tumor dosimetry was calculated by OLINDA/EXM v1.1 by fitting time activity curves for NB-EBC1 tumors from biodistribution data. All statistical analyses were performed in GraphPad Prism version 9.3.1 unless indicated otherwise.

[2] = cited from earlier work
[3] = 1-year-old, from CB57/BL6 mouse biodistribution
[4] = 5-year-old, from CB57/BL6 mouse biodistribution

Structure (SMILES): O=C1NCCn2c(-c3ccc([211At])cc3)nc3cccc1c32 [[^211At]PTT, Astatine-211-parthanatine]
- marrow dose per dose fraction ([1]; 0.02 kg mouse, 36 MBq/kg): approximately 2.5 Gy
- Estimated human dosimetry, Adrenals [1, 3]: 0.005 Gy per MBq/kg
- Estimated human dosimetry, Brain [1, 3]: 0.002 Gy per MBq/kg
- Estimated human dosimetry, Breasts [1, 3]: 0.005 Gy per MBq/kg
- Estimated human dosimetry, Gallbladder [1, 3]: 0.005 Gy per MBq/kg
- Estimated human dosimetry, Heart [1, 3]: 0.017 Gy per MBq/kg and 0.026 Gy per MBq/kg and 0.020 Gy per MBq/kg
- Estimated human dosimetry, Kidneys [1, 3]: 0.021 Gy per MBq/kg and 0.034 Gy per MBq/kg and 0.028 Gy per MBq/kg
- Estimated human dosimetry, Left Colon [1, 3]: 0.005 Gy per MBq/kg and 0.006 Gy per MBq/kg
- Estimated human dosimetry, Liver [1, 3]: 0.019 Gy per MBq/kg and 0.018 Gy per MBq/kg and 0.033 Gy per MBq/kg
- Estimated human dosimetry, Muscle [1, 3]: 0.008 Gy per MBq/kg and 0.016 Gy per MBq/kg
- Estimated human dosimetry, Ovaries [1, 3]: 0.005 Gy per MBq/kg
- Estimated human dosimetry, Red Marrow [1, 3]: 0.070 Gy per MBq/kg and 0.091 Gy per MBq/kg and 0.065 Gy per MBq/kg and 0.073 Gy per MBq/kg
- Estimated human dosimetry, Right Colon [1, 3]: 0.005 Gy per MBq/kg and 0.006 Gy per MBq/kg
- Estimated human dosimetry, Skin [1, 3]: 0.005 Gy per MBq/kg
- Estimated human dosimetry, Small Intestine [1, 3]: 0.005 Gy per MBq/kg
- Estimated human dosimetry, Spleen [1, 3]: 0.061 Gy per MBq/kg and 0.070 Gy per MBq/kg and 0.084 Gy per MBq/kg and 0.051 Gy per MBq/kg
- Estimated human dosimetry, Stomach [1, 3]: 0.005 Gy per MBq/kg
- Estimated human dosimetry, Testes [1, 3]: 0.005 Gy per MBq/kg
- Estimated human dosimetry, Thymus [1, 3]: 0.005 Gy per MBq/kg
- Estimated human dosimetry, Total Body [1, 3]: 0.009 Gy per MBq/kg and 0.010 Gy per MBq/kg and 0.011 Gy per MBq/kg
- Estimated human dosimetry, Urinary Bladder [1, 3]: 0.005 Gy per MBq/kg
- Estimated human dosimetry, Uterus [1, 3]: 0.005 Gy per MBq/kg
- Estimated human dosimetry, Adrenals [1, 4]: 0.004 Gy per MBq/kg and 0.005 Gy per MBq/kg
- Estimated human dosimetry, Brain [1, 4]: 0.002 Gy per MBq/kg and 0.001 Gy per MBq/kg
- Estimated human dosimetry, Breasts [1, 4]: 0.004 Gy per MBq/kg and 0.005 Gy per MBq/kg
- Estimated human dosimetry, Gallbladder [1, 4]: 0.004 Gy per MBq/kg and 0.005 Gy per MBq/kg
- Estimated human dosimetry, Heart [1, 4]: 0.015 Gy per MBq/kg and 0.016 Gy per MBq/kg and 0.024 Gy per MBq/kg and 0.018 Gy per MBq/kg
- Estimated human dosimetry, Kidneys [1, 4]: 0.018 Gy per MBq/kg and 0.029 Gy per MBq/kg and 0.023 Gy per MBq/kg
- Estimated human dosimetry, Left Colon [1, 4]: 0.004 Gy per MBq/kg and 0.005 Gy per MBq/kg
- Estimated human dosimetry, Ovaries [1, 4]: 0.004 Gy per MBq/kg and 0.005 Gy per MBq/kg
- Estimated human dosimetry, Red Marrow [1, 4]: 0.074 Gy per MBq/kg and 0.069 Gy per MBq/kg and 0.093 Gy per MBq/kg and 0.066 Gy per MBq/kg
- Estimated human dosimetry, Right Colon [1, 4]: 0.004 Gy per MBq/kg and 0.005 Gy per MBq/kg
- Estimated human dosimetry, Skin [1, 4]: 0.004 Gy per MBq/kg and 0.005 Gy per MBq/kg
- Estimated human dosimetry, Small Intestine [1, 4]: 0.004 Gy per MBq/kg and 0.005 Gy per MBq/kg
- Estimated human dosimetry, Spleen [1, 4]: 0.055 Gy per MBq/kg and 0.063 Gy per MBq/kg and 0.076 Gy per MBq/kg and 0.049 Gy per MBq/kg
- Estimated human dosimetry, Stomach [1, 4]: 0.004 Gy per MBq/kg and 0.005 Gy per MBq/kg
- Estimated human dosimetry, Testes [1, 4]: 0.004 Gy per MBq/kg and 0.005 Gy per MBq/kg
- Estimated human dosimetry, Thymus [1, 4]: 0.004 Gy per MBq/kg and 0.005 Gy per MBq/kg
- Estimated human dosimetry, Total Body [1, 4]: 0.009 Gy per MBq/kg and 0.011 Gy per MBq/kg
- Estimated human dosimetry, Urinary Bladder [1, 4]: 0.004 Gy per MBq/kg and 0.005 Gy per MBq/kg
- Estimated human dosimetry, Uterus [1, 4]: 0.004 Gy per MBq/kg and 0.005 Gy per MBq/kg
- predicted kidney dose scaled for an adult ([1]; derived from the mouse model): 0.34–0.44 mGy/MBq
- predicted kidney dose ([1]; extrapolated from mouse biodistribution to a 1-year-old human phantom): 0.026 Gy per MBq/kg
- fold more cytotoxic than the non-radioactive PARP inhibitor analog (KX1) [2]: ~1 billion
